Experimental data from patent US7915276B2, “Berberrubine derivatives having antifungal activities” (priority 2006, dated 2011).

Columns and labels:
[1] = target: T1, chitin synthase 1 of Candida albicans chs2 Δ chs 3 Δ (Candida albicans, UniProt P23316); test: In vitro enzyme assay for chitin synthase 1 of Candida albicans (enzyme 1); assay type: biochemical; details: relative to polyoxin D (50% inhibitory activity = value 5)
T1 construct: Crude enzyme was prepared using the Candida albicans chs2 Δ chs 3 Δ mutant; endogenous in cells; host or cells: Candida albicans chs2Δ/chs2Δ chs3Δ/chs3Δ mutant; 130,000 x g membrane pellet
T1 sequence (P23316 whole entry, stated change not applied): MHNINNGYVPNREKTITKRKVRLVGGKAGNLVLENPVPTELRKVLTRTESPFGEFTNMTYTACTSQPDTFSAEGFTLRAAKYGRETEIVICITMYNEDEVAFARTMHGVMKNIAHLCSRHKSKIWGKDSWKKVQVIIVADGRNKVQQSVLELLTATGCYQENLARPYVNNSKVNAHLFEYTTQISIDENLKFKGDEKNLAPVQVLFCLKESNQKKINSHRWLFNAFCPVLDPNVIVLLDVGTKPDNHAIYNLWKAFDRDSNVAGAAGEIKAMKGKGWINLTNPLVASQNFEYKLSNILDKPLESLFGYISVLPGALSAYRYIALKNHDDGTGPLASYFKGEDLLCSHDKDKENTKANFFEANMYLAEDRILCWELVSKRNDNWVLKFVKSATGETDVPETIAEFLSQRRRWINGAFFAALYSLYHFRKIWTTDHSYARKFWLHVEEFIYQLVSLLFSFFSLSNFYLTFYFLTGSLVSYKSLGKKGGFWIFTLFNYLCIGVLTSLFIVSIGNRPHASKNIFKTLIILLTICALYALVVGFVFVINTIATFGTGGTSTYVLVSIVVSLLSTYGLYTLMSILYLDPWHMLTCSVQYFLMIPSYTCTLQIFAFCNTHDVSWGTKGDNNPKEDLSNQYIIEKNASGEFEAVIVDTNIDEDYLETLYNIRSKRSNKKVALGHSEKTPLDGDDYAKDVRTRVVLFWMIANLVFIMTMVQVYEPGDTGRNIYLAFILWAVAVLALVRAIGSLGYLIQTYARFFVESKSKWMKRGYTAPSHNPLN
Procedure: Crude enzyme was prepared using the Candida albicans chs2 Δ chs 3 Δ mutant (chs2 Δ::hisG/chs2 Δ::hisG chs3 Δ::hisG/chs3 Δ::hisG) strain, which can only produce the chitin synthase 1. The strain was inoculated with the SDA (Sabouraud dextrose agar) culture medium (4% dextrose, 1% peptone, pH 5.6) and cultured at 30° C. for 15-17 hours until the absorbance at 550nm reaches 0.7. The cells were collected and suspended in a 50 mM Tris-HCl (pH 7.5) buffer solution containing 5 mM magnesium acetate. After centrifugation at 8,000×g for 10 minutes, the pellets were suspended in the same Tris-HCl buffer solution. The suspension was divided into aliquots in 50 mL conical test tubes. After adding glass beads, the cells were disrupted by vigorously vortexing with an interval of 30 seconds. The cell residues were removed by centrifuging at 3,000×g for 5 minutes. The supernatant was ultra-centrifuged at 130,000×g for 1 hour. The resultant pellets were collected and suspended in 50 mM Tris-HCl (pH 7.5) containing 33% glycerol, to a final volume of 1.6 mg/g (wet weight) of yeast used. The suspension was divided into aliquots and kept at −70° C. until it is used.
(§1) The inhibitory activities against the chitin synthase 1 of Candida albicans chs2 Δ chs 3 Δ (abbreviated as ‘enzyme 1’) and the chitin synthase 2 of Saccharomyces cerevisiae ECY38-38A(pAS6)(abbreviated as ‘enzyme 2’) was examined for compound Nos. 1 to 70 compound and polyoxin D, a positive control compound.
(§2) The inhibitory activity against the chitin synthase 1 prepared from Candida albicans and the chitin synthase 2 prepared from Saccharomyces cerevisiae were examined as follows. A reaction mixture containing 32 mM Tris-HCl (pH 7.5), 2 mM cobalt acetate, 1.1 mM UDP-[U-^14C]-N-acetyl-d-glucosamine (GlcNAc) (400,000 cpm/μmol), 2 μL of trypsin (0.75 mg/mL), 20 μL of each crude enzyme and 14 μL of each test sample was kept at 30° C. for 15 minutes to activate the enzyme. Then, 2 μL of trypsin inhibitor (1.5 mg/mL) was added and the mixture was kept in an ice bath for 10 minutes to deactivate trypsin. 2 μL of 0.8 M N-acetyl-d-glucosamine was added to a total volume of 50 μL and reaction was performed at 30° C. for 90 minutes. The reaction was stopped using 1 mL of 10% TCA solution and the reaction solution was filtered with a GF/C filter and dried at room temperature. After adding 3 mL of a scintillation cocktail solution, the amount of isotopes was measured using a liquid scintillation counter. Percentage inhibition against each enzyme was calculated by the following Equation 1.
(§3) The control group was not added with a test sample in the reaction mixture and that of the untreated group contained neither the test sample nor the crude enzyme.
(§4) A 50% inhibitory activity of polyoxin D against the enzyme was given the value 5. A compound having the same inhibitory activity as that of polyoxin D at the same concentration was given the value 5. Compounds having the inhibitory activity at 2-fold, 4-fold, 8-fold and 16-fold higher concentrations than that of polyoxin D were given the values of 4, 3, 2 and 1, respectively. On the other hand, compounds having the inhibitory activity at ½, ¼ and ⅛ lower concentrations than that of polyoxin D were given the values of 6, 7 and 8, respectively.

[2] = target: T2, chitin synthase 2 of Saccharomyces cerevisiae ECY38-38A(pAS6) (Saccharomyces cerevisiae, UniProt P14180); test: In vitro enzyme assay for chitin synthase 2 of Saccharomyces cerevisiae (enzyme 2); assay type: biochemical; details: relative to polyoxin D (50% inhibitory activity = value 5)
T2 construct: made in house; host or cells: Saccharomyces cerevisiae ECY38-38A (chs1-23 chs2::LEU2 cal1/csd2) carrying plasmid pAS6, grown in galactose medium; 130,000 x g membrane pellet
T2 sequence (P14180 whole entry): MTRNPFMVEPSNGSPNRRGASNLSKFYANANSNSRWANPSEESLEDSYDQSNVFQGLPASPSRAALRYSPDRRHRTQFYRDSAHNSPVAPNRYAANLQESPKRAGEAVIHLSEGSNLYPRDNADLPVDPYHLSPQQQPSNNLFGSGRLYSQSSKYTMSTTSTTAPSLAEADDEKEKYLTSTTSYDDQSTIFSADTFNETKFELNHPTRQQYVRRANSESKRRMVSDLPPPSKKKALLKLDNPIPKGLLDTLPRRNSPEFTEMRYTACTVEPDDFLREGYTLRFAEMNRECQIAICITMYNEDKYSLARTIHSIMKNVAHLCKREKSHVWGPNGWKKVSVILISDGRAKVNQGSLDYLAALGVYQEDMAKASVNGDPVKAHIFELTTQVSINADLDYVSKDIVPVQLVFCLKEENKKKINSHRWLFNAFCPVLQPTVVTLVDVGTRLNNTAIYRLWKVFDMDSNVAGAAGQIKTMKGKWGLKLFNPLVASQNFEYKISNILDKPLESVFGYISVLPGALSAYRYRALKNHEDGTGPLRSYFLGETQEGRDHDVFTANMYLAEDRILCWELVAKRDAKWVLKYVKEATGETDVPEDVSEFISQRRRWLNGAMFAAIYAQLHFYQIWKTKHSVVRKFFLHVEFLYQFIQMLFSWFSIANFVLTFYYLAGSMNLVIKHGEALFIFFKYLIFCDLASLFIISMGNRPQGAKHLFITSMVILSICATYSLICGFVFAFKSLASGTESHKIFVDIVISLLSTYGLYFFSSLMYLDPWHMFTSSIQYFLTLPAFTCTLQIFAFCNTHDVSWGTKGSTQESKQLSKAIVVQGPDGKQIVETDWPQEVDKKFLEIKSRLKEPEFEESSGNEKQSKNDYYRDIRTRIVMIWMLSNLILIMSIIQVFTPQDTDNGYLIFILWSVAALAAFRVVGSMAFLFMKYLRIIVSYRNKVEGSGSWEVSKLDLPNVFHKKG
Procedure: Crude enzyme was prepared using the recombinant Saccharomyces cerevisiae ECY38-38A(pAS6) (MATa chs1-23 chs2::LEU2 cal 1/csd 2 ura 3-52 trp 1-1 leu 2-2 pAS6) strain, which can produce the chitin synthase 2 only. The strain was inoculated with the YPG culture medium (1% yeast extract, 2% peptone, 2% galactose) and cultured at 30° C. overnight. Then, it was inoculated with a fresh YPG culture medium and cultured for 15-17 hours until the Absorbance at 550 nm reaches 1.0. The cells were collected and suspended in 50 mM Tris-HCl (pH 7.5) buffer containing 5 mM magnesium acetate. After centrifugation at 8,000×g for 10 minutes, the pellets were suspended in the same Tris-HCl buffer solution. The suspension was divided into aliquots in 50 mL conical test tubes. After adding the glass beads, the cells were disrupted by vigorously vortexing with an interval of 30 seconds. The cell residues were removed by centrifuging at 3,000×g for 5 minutes. The supernatant was ultra-centrifuged at 130,000×g for 1 hour. The resultant pellets were collected and suspended in 50 mM Tris-HCl (pH 7.5) containing 33% glycerol, to a final volume of 1.6 mg/g (wet weight) of yeast used. The suspension was divided into aliquots and kept at −70° C. until it is used.
as §1, §2, §3, §4

Row | Molecule | Relative activity Enzyme 1 [1] | Relative activity Enzyme 2 [2]
1 | COc1ccc2c(Cc3ccc(OC(F)(F)F)cc3)c3[n+](cc2c1OCc1ccc(C(C)(C)C)cc1)CCc1cc2c(cc1-3)OCO2.[Br-] [Compound No. 35, 13-(4-Trifluoromethoxybenzyl)-9-O-(4-tert-butylbenzyl)berberrubine bromide] | 2 (Compounds having the inhibitory activity at 2-fold, 4-fold, 8-fold and 16-fold higher concentrations than that of polyoxin D were given the values of 4, 3, 2 and 1, respectively) | 5 (A compound having the same inhibitory activity as that of polyoxin D at the same concentration was given the value 5)
2 | 13-(4-Trifluoromethylbenzyl)-9-O-butylberberrubine iodide [Compound No. 36] | 3 (Compounds having the inhibitory activity at 2-fold, 4-fold, 8-fold and 16-fold higher concentrations than that of polyoxin D were given the values of 4, 3, 2 and 1, respectively) | 6 (compounds having the inhibitory activity at ½, ¼ and ⅛ lower concentrations than that of polyoxin D were given the values of 6, 7 and 8, respectively)
3 | COc1cc(Cc2c3[n+](cc4c(OCc5ccc(C(C)(C)C)cc5)c(OC)ccc24)CCc2cc4c(cc2-3)OCO4)cc(OC)c1OC.[Br-] [Compound No. 32, 13-(3,4,5-Trimethoxybenzyl)-9-O-(4-tert-butylbenzyl)berberrubine bromide] | 2 (Compounds having the inhibitory activity at 2-fold, 4-fold, 8-fold and 16-fold higher concentrations than that of polyoxin D were given the values of 4, 3, 2 and 1, respectively) | 4 (Compounds having the inhibitory activity at 2-fold, 4-fold, 8-fold and 16-fold higher concentrations than that of polyoxin D were given the values of 4, 3, 2 and 1, respectively)
4 | 13-(3,4,5-trimethoxybenzyl)-9-O-butylberberrubine iodide [Compound No. 30] | 2 (Compounds having the inhibitory activity at 2-fold, 4-fold, 8-fold and 16-fold higher concentrations than that of polyoxin D were given the values of 4, 3, 2 and 1, respectively) | 5 (A compound having the same inhibitory activity as that of polyoxin D at the same concentration was given the value 5)
5 | 13-(4-Isopropylbenzyl)berberrubine [Compound No. 6] | 2 (Compounds having the inhibitory activity at 2-fold, 4-fold, 8-fold and 16-fold higher concentrations than that of polyoxin D were given the values of 4, 3, 2 and 1, respectively) | 4 (Compounds having the inhibitory activity at 2-fold, 4-fold, 8-fold and 16-fold higher concentrations than that of polyoxin D were given the values of 4, 3, 2 and 1, respectively)
6 | 13-(4-Trifluoromethoxybenzyl)-9-O-hexylberberrubine iodide [Compound No. 34] | 2 (Compounds having the inhibitory activity at 2-fold, 4-fold, 8-fold and 16-fold higher concentrations than that of polyoxin D were given the values of 4, 3, 2 and 1, respectively) | 5 (A compound having the same inhibitory activity as that of polyoxin D at the same concentration was given the value 5)
7 | COc1cc(Cc2c3[n+](cc4c(OCc5ccc(C(C)(C)C)cc5)c(OC)ccc24)CCc2cc4c(cc2-3)OCO4)cc(OC)c1OC.[Cl-] [Compound No. 64, 13-(3,4,5-Trimethoxybenzyl)-9-O-(4-tert-butylbenzyl)berberrubine chloride] | 2 (Compounds having the inhibitory activity at 2-fold, 4-fold, 8-fold and 16-fold higher concentrations than that of polyoxin D were given the values of 4, 3, 2 and 1, respectively) | 4 (Compounds having the inhibitory activity at 2-fold, 4-fold, 8-fold and 16-fold higher concentrations than that of polyoxin D were given the values of 4, 3, 2 and 1, respectively)
8 | 13-(4-Trifluoromethoxybenzyl)berberrubine [Compound No. 3] | 1 (Compounds having the inhibitory activity at 2-fold, 4-fold, 8-fold and 16-fold higher concentrations than that of polyoxin D were given the values of 4, 3, 2 and 1, respectively) | 3 (Compounds having the inhibitory activity at 2-fold, 4-fold, 8-fold and 16-fold higher concentrations than that of polyoxin D were given the values of 4, 3, 2 and 1, respectively)
9 | COc1ccc2c(Cc3ccc(C(F)(F)F)cc3)c3[n+](cc2c1OC)CCc1cc2c(cc1-3)OCO2.[Cl-] [Comparative compound 2, reference compound] | <1 (Compounds having the inhibitory activity at 2-fold, 4-fold, 8-fold and 16-fold higher concentrations than that of polyoxin D were given the values of 4, 3, 2 and 1, respectively) | 2 (Compounds having the inhibitory activity at 2-fold, 4-fold, 8-fold and 16-fold higher concentrations than that of polyoxin D were given the values of 4, 3, 2 and 1, respectively)
10 | 13-(4-tert-Butylbenzyl)berberrubine [Compound No. 5] | 2 (Compounds having the inhibitory activity at 2-fold, 4-fold, 8-fold and 16-fold higher concentrations than that of polyoxin D were given the values of 4, 3, 2 and 1, respectively) | 4 (Compounds having the inhibitory activity at 2-fold, 4-fold, 8-fold and 16-fold higher concentrations than that of polyoxin D were given the values of 4, 3, 2 and 1, respectively)
11 | 13-(3,4,5-Trifluorobenzyl)-9-O-hexylberberrubine iodide [Compound No. 28] | 2 (Compounds having the inhibitory activity at 2-fold, 4-fold, 8-fold and 16-fold higher concentrations than that of polyoxin D were given the values of 4, 3, 2 and 1, respectively) | 5 (A compound having the same inhibitory activity as that of polyoxin D at the same concentration was given the value 5)
12 | 13-(4-Trifluoromethylbenzyl)-9-O-butylberberrubine chloride [Compound No. 68] | 3 (Compounds having the inhibitory activity at 2-fold, 4-fold, 8-fold and 16-fold higher concentrations than that of polyoxin D were given the values of 4, 3, 2 and 1, respectively) | 6 (compounds having the inhibitory activity at ½, ¼ and ⅛ lower concentrations than that of polyoxin D were given the values of 6, 7 and 8, respectively)
13 | 13-(4-Trifluoromethylbenzyl)-9-O-hexylberberrubine chloride [Compound No. 69] | 3 (Compounds having the inhibitory activity at 2-fold, 4-fold, 8-fold and 16-fold higher concentrations than that of polyoxin D were given the values of 4, 3, 2 and 1, respectively) | 5 (A compound having the same inhibitory activity as that of polyoxin D at the same concentration was given the value 5)
14 | 13-(4-Trifluoromethylbenzyl)berberrubine [Compound No. 4] | 1 (Compounds having the inhibitory activity at 2-fold, 4-fold, 8-fold and 16-fold higher concentrations than that of polyoxin D were given the values of 4, 3, 2 and 1, respectively) | 3 (Compounds having the inhibitory activity at 2-fold, 4-fold, 8-fold and 16-fold higher concentrations than that of polyoxin D were given the values of 4, 3, 2 and 1, respectively)
